In patent US20240174657A1, “SELECTIVE ANGIOTENSIN II RECEPTOR LIGANDS” (priority 2021, published 2024):

How the values were obtained:
Assay type in all cases: in vitro ADME
CYP3A4&5 = assay: CYP inhibition in human liver microsomes, testosterone substrate; conditions: probe testosterone, read-out: CYP3A4&5 testosterone Inh %
[1] = test system: Cytochrome P450 enzymes (CYPs), especially CYP 2C9 and CYP 3A4; assay: CYP enzyme inhibition, statements in text without method; conditions: found during development
[2] = Metabolic hydrolysis, statement in text without method; conditions: found during development

inhibition at 10 µM (CYP3A4&5): 94%
inhibition of Cytochrome P450 enzymes (in words) [1]: potent inhibitor
Structure (SMILES): CCCCOC(=O)NS(=O)(=O)c1sc(CC(C)C)cc1-c1ccc(Cn2ccnc2)cc1 [Example C21, N-butyloxycarbonyl-3-(4-imidazol-1-ylmethylphenyl)-5-isobutylthiophene-2-sulfon-amide]
metabolic hydrolysis (in words) [2]: rapidly hydrolysed to an inactive sulfonamide metabolite
